According to PMC4250379 (Neuroscience, 2014):

Target: T1, MD-2 (Homo sapiens, UniProt Q9Y6Y9)
T1 sequence (Q9Y6Y9 19-160): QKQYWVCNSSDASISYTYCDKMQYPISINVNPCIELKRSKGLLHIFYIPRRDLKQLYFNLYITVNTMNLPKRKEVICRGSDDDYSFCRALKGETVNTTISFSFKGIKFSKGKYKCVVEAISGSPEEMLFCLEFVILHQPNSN
Assay: quenching of MD-2 intrinsic Tyr/Trp fluorescence
Assay type: binding

CN1CC[C@]23c4c5ccc(O[C@@H]6O[C@H](C(=O)O)[C@@H](O)[C@H](O)[C@H]6O)c4O[C@H]2[C@@H](O)C=C[C@H]3[C@H]1C5 [M3G, morphine-3-glucuronide]
Kd: 1500 ± 300 nM
